Source: patent US20220242812A1, “SWELL1-LRRC8 COMPLEX MODULATORS” (Washington University, priority 2019, published 2022)
“Also recorded” adds a separate entry of the source.

Key:
HFD T2D mice = experiment: Glucose tolerance and fasting glucose in HFD T2D mice (Smod compounds, Example 2); assay type: in vivo
Protocol: FIG. 7. Representative glucose tolerance test data, area under curve (AUC) and fasting glucose for mice treated with a vehicle, and 5 mg/kg/day Smod3 or Snot1 for 5 days. Smod3, but not Snot1 improves glucose tolerance (as measured by are under the curve, AUC), and fasting glucose in HFD T2D mice. N=5 mice in each group. *p<0.05, ** p<0.01, *** p<0.001.
FIG. 8. Glucose Tolerance of obese T2D mice (16 weeks HFD): Pre-Smod6 (black circles), after Smod6 (5 mg/kg i.p.×5 days, pink triangles), 4 weeks after i.p. vehicle injection (blue diamonds), and 4 weeks after discontinuing Smod6 (maroon squares).
FIG. 9. Glucose Tolerance of obese T2D mice (16 weeks HFD): 4 weeks after i.p. vehicle injection (black circles), 4 weeks after Snot1 (5 mg/kg i.p.×5 days, blue squares), and 4 weeks after Smod6 (5 mg/kg i.p.×5 days, maroon triangles).
Moreover, Smod3, and not Snot1 (5 mg/kg i.p.×[…]) improve glucose tolerance (GTT, Area under the curve) and fasting glucose (FG) in mice raised on HFD for 8 weeks in pilot studies (FIG. 7).

[1] = target: ICl,SWELL (SWELL1 channel) (Homo sapiens, UniProt Q8IWT6); experiment: Patch-clamp screening of Smod compounds for ICl,SWELL inhibitory activity; assay type: cell-based; details: preliminary patch-clamp experiments, in words
Text: FIG. 2. Patch-clamp screening of Smod compounds for ICL,SWELL inhibitory activity.
FIG. 3. Patch-clamp screening of Smod compounds for ICL,SWELL inhibitory activity.
A series of compounds (Smod compounds) were synthesized to evaluate the role of a butyrate side chain and aryl substituents on activity (see FIG. 1 and Table 1 below). In preliminary patch-clamp experiments to screen for compounds that preserve or enhance SWELL1 modulatory activity, unique structural derivatives were identified with ICl,SWELL inhibitory activity (Smod 2-6, FIGS. 2, 3, and 12-16, as well as Table 1 below). […] In vitro channel inhibitory activity was also maintained with Smod3-5 (FIG. 3). Note that compounds were also identified that lack activity, and therefore are not SWELL1 modulators (i.e., Snot1, FIGS. 2A and 3A). FIG. 4 summarizes three dose response curves of isolated enantiomers of Smod1 (+ and −) compared to Smod3. […] FIG. 5 summarizes the synthetic scheme used to generate these compounds.

SWELL1 protein [2] = target: T1, SWELL1 protein (Mus musculus, UniProt Q80WG5); details: 3T3-F442A adipocytes, 1 and 10 μM, 4 days
[3] = target: T2, closed SWELL1-LRRC8 channel in HEK-293 cells (Homo sapiens, UniProt Q8IWT6); experiment: ICl,SWELL inhibition on application to the closed SWELL1-LRRC8 channel (30 min preincubation), HEK-293 cells; assay type: cell-based; details: 1 μM, 30 minutes prior to hypotonic activation
T2 construct: endogenous in cells; host or cells: HEK-293 (ATCC CRL-1573)
Protocol: (§1) Patch-clamp recordings of β-cells and mature adipocytes were performed as described previously (Kang et al., 2018; Zhang et al., 2017). 3T3-F442A WT and KO preadipocytes were prepared as described in the Cell culture section above. For SWELL1 overexpression recordings, preadipocytes were first transduced with Ad5-CAG-LoxP-stop-LoxP-3×Flag-SWELL1 (MOI 12) in 2% FBS culture medium for two days and then overexpression induced by adding Ad5-CMV-Cre-wt-lRES-eGFP (MOI 10-12) in 2% FBS culture medium for two more days and changed to 10% FBS containing culture media and were selected based on GFP expression (˜2-3 days). For cell recordings, islets were transduced with Ad-RIP2-GFP and then dispersed after 48-72 hours for patch-clamp experiments. GFP+ cells marked β-cells selected for patch-clamp recordings. […] Recordings were measured using […] amplifier paired to a Digidata 1550 digitizer using pClamp 10.4 software. The extracellular buffer composition for hypotonic stimulation contains 90 mM NaCl, 2 mM CsCl, 1 mM MgCl, 1 mM CaCb, 10 mM HEPES, 10 mM Mannitol, pH 7.4 with NaOH (210 mOsm/kg). The extracellular isotonic buffer composition is same as above except for Mannitol concentration of 110 mM (300 mOsm/kg). The composition of intracellular buffer is 120 mM L-aspartic acid, 20 mM CsCl, 1 mM MgCl, 5 mM EGTA, 10 mM HEPES, 5 mM MgATP, 120 mM CsOH, 0.1 mM GTP, pH 7.2 with CsOH. All recordings were carried out at room temperature (RT) with HEK-293 cells, β-cells and 3T3-F442A cells performed in whole-cell configuration and human adipocytes in perforated-patch configuration, as previously described (Kang et al., 2018; Zhang et al., 2017).

[4] = target: T3, SWELL1-LRRC8 channel (ICl,SWELL) in HEK-293 cells (Homo sapiens, UniProt Q8IWT6); experiment: ICl,SWELL inhibition after hypotonic activation, patch-clamp in HEK-293 cells; assay type: cell-based; details: HEK-293 cells, hypotonic (210 mOsm), 10 and 7 μM, relative to SN-401
T3 construct: endogenous in cells; host or cells: HEK-293 (ATCC CRL-1573)
Protocol: Mean presented±SEM. Two-tailed unpaired t-test was used. *, **, and *** represents p<0.05, p<0.01 and p<0.001, respectively.
as §1

[5] = test system: islets, glucose-stimulated insulin secretion; experiment: Islet perifusion GSIS assay, islets from treated T2D mice; assay type: in vivo; details: islets of T2D KKAy mice, compared to SN071
Protocol: For patch-clamp studies involving primary mouse cells, the mice were anesthesized by injecting Avertin (0.0125 g/ml in H2O) followed by cervical dislocation. […] Perifusion buffer contained (in mM): 120 NaCl, 24 NaHCO3, 4.8 KCl, 2.5 CaCl, 1.2 MgSO4, 10 HEPES, 2.8 glucose, 27.2 mannitol, 0.25% w/v bovine serum albumin, pH 7.4 with NaOH (300 mOsm/kg). Perifusion buffer kept at 37° C. was circulated at 120 μI/min After 48 min of washing with 2.8 mM glucose solution for stabilization, islets were stimulated with the following sequence: 16 min of 16.7 mM glucose, 40 min of 2.8 mM glucose, 10 min of 30 mM KCl, and 12 min of 2.8 mM glucose. Osmolarity was matched by adjusting mannitol concentration when preparing solution containing 16.7 mM glucose. Serial samples were collected either every 1 or 2 min into 96 wells kept at 4° C. Insulin concentrations were further determined using commercially available ELISA kit (Mercodia). The area under the curve (AUC) for the high-glucose induced insulin release was calculated for time points between 50 to 74/84 min. At the completion of the experiments, islets were further lysed by addition of RIPA buffer and the amount of insulin was detected by ELISA.

polygenic T2D KKAy mice = experiment: Metabolic phenotyping (fasting glucose, GTT, ITT) in polygenic T2D KKAy mice; assay type: in vivo; details: T2D KKAy mice, 5 mg/kg i.p. 4 days, compared to SN071
Text: All C57BL/6 mice involved in study were purchased from Charles River Labs. Both KK.Cg-Ay/J (KKN) and KK.Cg-Aa/J (KKAa) mice involved in study were gender and age-matched mice obtained from Jackson Labs (Stock No: 002468) and bred up for experiments. The mice were fed ad libitum with either regular chow (RC) or high-fat diet (Research Diets, Inc., 60 kcal % fat) with free access to water and housed in a light-, temperature- and humidity-controlled room. For high-fat diet (HFD) studies, only male mice were used and were started on HFD regimen at the age of 6-9 weeks. For all experiments involving KKN and KKAa mice, both males and females were used at approximately 50/50 ratio. In all experiments involving mice, investigators were kept blinded both during the experiments and subsequent analysis.
(§2) All compounds were dissolved in Kolliphor® EL (Sigma, #C5135).
Mice were fasted for 6 h prior to glucose tolerance tests (GTT). Baseline glucose levels at 0 min timepoint (fasting glucose, FG) were measured from blood sample collected from tail snipping using glucometer (Bayer Healthcare LLC). Either 1 g or 0.75 g D-Glucose/kg body weight were injected (i.p.) for lean or HFD mice, respectively and glucose levels were measured at 7, 15, 30, 60, 90 and 120 min timepoints after injection. For insulin tolerance tests (ITTs), the mice were fasted for 4 h. Similar to GTTs, the baseline blood glucose levels were measured at 0 min timepoint and 15, 30, 60, 90 and 120 min timepoints post-injection (i.p.) of insulin (HumulinR, 1 U/kg body weight for lean mice or 1.25 U/kg body weight for HFD mice). […] The collected plasma was then measured for insulin content by using Ultra-Sensitive Mouse Insulin ELISA Kit (Crystal Chem, #90080). All mice and treatment groups were assessed blindly while performing experiments.

SWELL1 protein [6] = target: T1, SWELL1 protein; experiment: Glucolipotoxic stress (palmitate + glucose) SWELL1 protein in 3T3-F442A adipocytes; details: 10 μM 96 h, 1 mM palmitate + 25 mM glucose
HFD-induced T2D mice = experiment: Metabolic phenotyping (fasting glucose, GTT, ITT) in HFD-fed T2D mice; assay type: in vivo; details: HFD 8 weeks, 5 mg/kg/day x 4 days, compared to SN071
Protocol: as §2
Mice were fasted for 6 h prior to glucose tolerance tests (GTT). Baseline glucose levels at 0 min timepoint (fasting glucose, FG) were measured from blood sample collected from tail snipping using glucometer (Bayer Healthcare LLC). Either 1 g or 0.75 g D-Glucose/kg body weight were injected (i.p.) for lean or HFD mice, respectively and glucose levels were measured at 7, 15, 30, 60, 90 and 120 min timepoints after injection. For insulin tolerance tests (ITTs), the mice were fasted for 4 h. […] All mice and treatment groups were assessed blindly while performing experiments.

[7] = mice on HFD 8 weeks, 5 mg/kg i.p. x 4 days (FIG. 7 legend: 5 days), listed as Smod3, 5 mg/kg

CCCCC1(C2CCCC2)Cc2cc(OCCCCCC(=O)O)c(Cl)c(Cl)c2C1=O (racemic) [UIPC-III-045B]
Glucose tolerance 4 weeks after discontinuing treatment (HFD T2D mice; T2D HFD fed mice, 5 mg/kg i.p. x 5 days, after 20 weeks HFD): sustain improved glucose tolerance

CCCCC1(C2CCCC2)Cc2cc(OCCCCC(=O)O)c(Cl)c(Cl)c2C1=O (racemic) [UICK-IV-119]
ICl,SWELL inhibitory activity ([1]; listed as Smod3): maintaining and augmenting activity
Fasting glucose (FG) (HFD T2D mice; [7]): improves
Glucose tolerance (GTT, area under the curve) (HFD T2D mice; [7]): improves

CCCCC1(C2CCCC2)Cc2cc(OCC(=O)O)c(Cl)c(Cl)c2C1=O (centres unmarked) [UICK-IV-101a]
ICl,SWELL inhibitory activity ([1]; listed as Snot1): lack activity; also recorded: lacking ICl,SWELL inhibitory activity
Glucose tolerance (GTT, area under the curve) (HFD T2D mice; mice on HFD 8 weeks, 5 mg/kg i.p. x 4 days (FIG. 7 legend: 5 days)): not

CCCCC1(C2CCCC2)Cc2cc(OCCCN(C)C)c(Cl)c(Cl)c2C1=O.Cl (racemic) [UICK-IV-105b]
ICl,SWELL inhibitory activity ([1]; listed as Smod2): active; also recorded: maintaining activity

CCCCC1(C2CCCC2)Cc2cc(OCC(=O)O)c(Cl)c(Cl)c2C1=O (centres unmarked) [SN071, 2-((2-butyl-6,7-dichloro-2-cyclopentyl-1-oxo-2,3-dihydro-1H-inden-5-yl)oxy)acetic acid]
SWELL1 protein level relative to vehicle-treated controls (SWELL1 protein [2]): do not significantly increase
Subsequent hypotonic SWELL1-LRRC8 activation [3]: inactive
On-target inhibition of ICl,SWELL [4]: eliminate ICl,SWELL inhibitory activity
On-target inhibition of ICl,SWELL ([4]; listed as S1\1071): entirely eliminated

CCCCC1(C2CCCC2)Cc2cc(OC/C=C/C(=O)O)c(Cl)c(Cl)c2C1=O (racemic) [UIPC-II-179]
ICl,SWELL inhibitory activity [1]: maintaining activity

CCCCC1(C2CCCC2)Cc2cc(OCCCCCCC(=O)O)c(Cl)c(Cl)c2C1=O (centres unmarked) [SN-407, 7-((2-butyl-6,7-dichloro-2-cyclopentyl-1-oxo-2,3-dihydro-1H-inden-5-yl)oxy)heptanoic acid]
GSIS [5]: increased
Glucose tolerance based on the GTT AUC (polygenic T2D KKAy mice): improved
On-target inhibition of ICl,SWELL [4]: maintained or enhanced; also recorded: increase

O=C(O)CCCOc1cc2c(c(Cl)c1Cl)C(=O)C(C1CCCC1)C2 (centres unmarked) [UIPC-III-083B, 4-((6,7-dichloro-2-cyclopentyl-1-oxo-2,3-dihydro-1H-inden-5-yl)oxy)butanoic acid]
SWELL1 protein level relative to vehicle-treated controls (SWELL1 protein [2]): do not significantly increase
Subsequent hypotonic SWELL1-LRRC8 activation [3]: inactive
On-target inhibition of ICl,SWELL ([4]; listed as SN072): entirely eliminated; also recorded: eliminate ICl,SWELL inhibitory activity
Prevention of palmitate/glucose-induced SWELL1 protein reduction (SWELL1 protein [6]): not

CCCCC1(C2CCCC2)Cc2cc(OCCCCC(=O)O)c(Cl)c(Cl)c2C1=O (centres unmarked) [SN-403, 5-((2-butyl-6,7-dichloro-2-cyclopentyl-1-oxo-2,3-dihydro-1H-inden-5-yl)oxy)pentanoic acid]
Fasting blood glucose (HFD-induced T2D mice): significantly reduced
Glucose tolerance (HFD-induced T2D mice): improved
On-target inhibition of ICl,SWELL [4]: maintained or enhanced

CCCCC1(C2CCCC2)Cc2cc(OCCCC(=O)O)c(C)c(C)c2C1=O (racemic) [UIPC-II-187B]
ICl,SWELL inhibitory activity ([1]; listed as Smod5): did not significantly alter activity; also recorded: maintaining activity
